In the NIST ThermoML archive (doi:10.1016/j.fluid.2009.10.009):
± gives the expanded uncertainty stated by the source.

Settings: Crystal

Row | Normal melting temperature (Visual) [°C] | Normal melting temperature (visual observation) [°C] | SMILES
1 | 7.00 | – | CCCCCCCCCCO [decan-1-ol]
2 | – | 148.00 ± 0.39 | CC(C)CCC[C@@H](C)[C@H]1CC[C@H]2[C@@H]3CC=C4C[C@@H](O)CC[C@]4(C)[C@H]3CC[C@]12C [.DELTA.5-cholesten-3β-ol]
